According to patent US8414760B2, “Biosensor electrode mediators for regeneration of cofactors” (priority 1997, dated 2013):

Columns and labels:
[1] = tested on: D-3-Hydroxybutyrate dehydrogenase (HBDH); assay: Assessment of mediator inhibition of D-3-hydroxybutyrate dehydrogenase (assay rate before and after filtration); assay type: biochemical, Pseudomonas sp.; design: Residual enzyme activity after filtration (percentage of the original activity): concentration or dose not given beside the values; conditions: for Assay Rate before filtration: 50 U/ml HBDH with mediator in Tris buffer pH 8.2, incubated 0.5 hours at 37.5 C, NADH at 340 nm, measure of efficiency as oxidant of NADH; for Assay Rate after filtration: enzyme reisolated from the mediator solution by filtration (30,000 cut-off), redissolved in Tris buffer; for Residual enzyme activity after filtration (percentage of the original activity): compared with control (no mediator)
Description: D-3-Hydroxybutyrate dehydrogenase (HBDH; EC 1.1.1.30) from Pseudomonas sp. was purchased from Toyobo Co., Ltd. p-Nicotinamide adenine dinucleotide (NAD^+) and D,L-3-hydroxybutyric acid were supplied by Boehringer Mannheim.
A series of 18 solutions (2.5 ml each) were prepared, each containing 50 U/ml HBDH and 1.29 or 2.58 mg of the following NAD(P)H mediators: MB(3), 4-Me-BQ(4), 1-Me0-PMS (5), DCIP(6), 1,10-PQ(7), 1,7-PQ(8), 2,9-Me2-1,10-PQ(10), 1-Me-1,10-PQ^+ (11), and [Ru(bpy)2(1,10-PQ)](PF6)2 (12) in Tris buffer (50 mM, pH 8.2). A control solution was also prepared, containing enzyme but no mediator. The solutions were incubated for 0.5 hours at 37.5 C, then assayed (in triplicate) for NADH at 340 nm, using a Sigma Diagnostics D-3-hydroxybutyrate kit. The extent of the interference of the added mediator with the assay rate compared to the control afforded a quantitative measure of the mediator's efficiency as an oxidant of NADH.
The enzyme was then reisolated from the mediator solutions by filtration through a polysulfone membrane (nominal molecular weight cut-off: 30,000) in a microcentrifuge filter (Millipore). The enzyme remaining on the filter was dissolved in Tris buffer (0.2 ml), and the resulting solution was assayed (in triplicate) with the Sigma kit. By comparing the results of the assays before and after filtration, the effect of any covalently and/or irreversibly bound mediator on the enzyme activity could be determined.

[2] = Dry strips containing HBDH and NAD+: response to D-3-hydroxybutyrate after storage
Description: Screen-printed electrodes were produced from an aqueous carbon ink incorporating 1,10-PQ or MB at a level of 2.4 or 4.3 mg/g ink, respectively, together with the enzyme HBDH (120 units/g ink) and NAD^+ (110 mg/g ink). The ink also contained a polysaccharide binder.
The electrodes were tested after 4, 14, and 26 weeks of storage (30° C., desiccated) with aqueous D-3-hydroxybutyrate solutions (0-25 mM) in PBS at a poise potential of +400 mV versus a printed Ag/AgCl reference electrode. All three dose responses were non-linear and levelled out with a current of 8.5 μA being recorded at 24 mM D-3-hydroxybutyrate.
The electrodes were tested after 2 and 14 weeks storage (30° C., desiccated) with aqueous D-3-hydroxybutyrate solutions (0-28 mM) in PBS at a poise potential of +100 mV versus a printed Ag/AgCl reference electrode. The dose response curves were similar to those in FIG. 4. A current of 8.6 μA was recorded at 24 mM D-3-hydroxybutyrate for these electrodes after 2 weeks storage. This is almost identical to responses obtained from dry strips containing 1,10-PQ.

[3] = Evaluation of mediators as NADH mediators in dry strips (screen-printed electrodes, NADH dose response)
Description: Screen-printed electrodes incorporating 1,10-PQ and MB were produced from an organic carbon ink containing these NAD(P)H mediators at a level of 3.5 mg/g ink. The solid mediators were mixed into a commercial conducting carbon ink (Gwent Electronic Materials).
The dose response curve for the electrodes containing 1,10-PQ tested with aqueous NADH solutions (0-16.7 mM) in PBS at a poise potential of +400 mV versus a printed Ag/AgCl reference electrode is shown in FIG. 3. A slope of 0.58 nA mM^−1 NADH was recorded. The dose response curve for the electrodes containing MB tested with aqueous NADH solutions (0-12.4 mM) at a poise potential of +100 mV versus a printed Ag/AgCl reference electrode is shown in FIG. 4. An increased slope of 8.48 μA mM^−1 NADH was observed.

Row | Compound | Assay Rate before filtration [1] [absorbance units/min] | Assay Rate after filtration [1] [absorbance units/min] | Current at 24 mM D-3-hydroxybutyrate ([2]; after 4, 14 and 26 weeks of storage (30° C., desiccated), +400 mV versus Ag/AgCl) [μA] | Slope of dose response curve to NADH ([3]; electrodes containing 1,10-PQ, NADH 0-16.7 mM in PBS, +400 mV versus Ag/AgCl) [nA mM^−1 NADH] | Residual enzyme activity after filtration (percentage of the original activity) [1] [%] | Current at 24 mM D-3-hydroxybutyrate ([2]; after 2 weeks storage (30° C., desiccated), +100 mV versus Ag/AgCl) [μA] | Slope of dose response curve to NADH ([3]; electrodes containing MB, NADH 0-12.4 mM, +100 mV versus Ag/AgCl) [μA mM^−1 NADH]
1 | O=C1C(=O)c2ncccc2-c2ncccc21 [1,7-PQ, 1,7-Phenanthroline quinone] | 0.115 | 0.150 | – | – | – | – | –
2 | O=C1C(=O)c2cccnc2-c2ncccc21 [1,10-PQ, 1,10-Phenanthroline quinone] | 0.149 | 0.160 | 8.5 | 0.58 | – | – | –
3 | C[n+]1cccc2c1-c1ncccc1C(=O)C2=O.O=S(=O)([O-])C(F)(F)F [1-Me-1,10-PQ^+, 1-Me-1,10-phenanthrolinium quinone trifluoromethane sulphonate] | 0.150 | 0.185 | – | – | 94 | – | –
4 | Cc1ccc2c(n1)-c1nc(C)ccc1C(=O)C2=O [2,9-Me2-1,10-PQ, 2,9-Dimethyl-1,10-phenanthroline quinone] | 0.189 | – | – | – | – | – | –
5 | COS(=O)(=O)[O-].COc1cccc2c1nc1ccccc1[n+]2C [Compound 1-MeO-PMS, 1-Methoxy phenazine methosulphate] | 0.009 | 0.071 | – | – | 47 | – | –
6 | CC1=CC(=O)C(=O)C=C1 [Compound 4-Me-BQ, 4-Methyl-1,2-benzoquinone] | 0.005 | 0.007 | – | – | 4 | – | –
7 | O=C1C(Cl)=CC(=Nc2ccc(O)cc2)C=C1Cl [DCIP, 2,6-Dichloroindophenol] | 0.104 | 0.085 | – | – | 57 | – | –
8 | C[N+](C)=c1ccc2nc3c(ccc4ccccc43)oc-2c1.[Cl-] [MB, Meldola's Blue] | 0.008 | 0.026 | – | – | 16 | 8.6 | 8.48
9 | [Ru(bpy)2(1,10-PQ)] (PF6)2 [[Ru(bpy)2(1,10-PQ)](PF6)2] | 0.114 | 0.193 | – | – | 98 | – | –
